Data reported in US20030171382A1, “Pharmaceutical composition for regeneration of cirrhotic liver” (priority 2002, published 2003).
Where two headings read alike, the source gives them in different places. Marks after values point to notes of the source that are not given here.

Legend:
cirrhotic rats [1] = conditions: 30 mg/kg, 3 times a week for 4 weeks
Source text: (§1) Sprague-Dawley rats that were 6 weeks old and 140-160 g were used in the examples below.
The left side of FIG. 4b is a photograph of liver tissue, obtained after administration of oltipraz to cirrhotic rats, taken following Masson's trichrome staining.

C/EBP-β and C/EBP-α [2] = conditions: cirrhotic rats, 30 mg/kg, 3 times a week for 4 weeks
Description: With the importance of C/EBP in the regulation of liver regeneration in mind, the expression of C/EBP-β and C/EBP-α in oltipraz administered (30 mg/kg, 3 times a week for 4 weeks) cirrhotic rats were examined.

PCNA [3] = conditions: cirrhotic rats, 30 mg/kg, 3 times a week for 4 weeks; versus control or untreated cirrhotic rats
Description: Nuclear fractions of the liver from the control rats, cirrhotic rats and oltipraz administered (30 mg/kg, 3 times a week for 4 weeks) cirrhotic rats were dissolved in a diluting solution containing sodium dodecyl sulfate (SDS) to form a sample and stored at −70° C. After SDS-polyacrylamide gel electrophoresis, immunoblot analysis was carried out. The sample was fractionated by using 12% gel electrophoresis and electrically transferred to nitrocellulose membrane. The nitrocellulose membrane was incubated with polyclonal mouse anti-PCNA antibody (1:1000) (Santa Cruz Biotech) and then incubated again with horseradish peroxidase-conjugated secondary antibody. Lastly, ECL chemiluminescence kit manufactured by Amersham company was used to develop the band.

rats with cirrhosis [4] = conditions: for ALT in blood plasma / AST in blood plasma / Bilirubin in blood plasma / Cholesterol in blood plasma: group with cirrhosis; for ALT in blood plasma: untreated 138 ± 14, control 55 ± 4; for AST in blood plasma: untreated 275 ± 36, control 141 ± 18; for Bilirubin in blood plasma: untreated 2.7 ± 0.8, control 1.1 ± 0.1; for Cholesterol in blood plasma: untreated 152 ± 30, control 97 ± 6
Description: as §1
When the rats were administered with 15 mg/kg of oltipraz, 3 times a week for 4 weeks, the ALT and AST activity in the blood plasma was reduced, and when administered with 30 mg/kg, approximately 70% of the AST value lowered, showing a statistical significance (Table 2).
The amount of bilirubin in blood plasma is an indicator of the liver's capacity.
Each value is represented by the average ± standard deviation. The number of animals used was 8 to 11. The significance of each group is determined by the paired Student's t-test. The significance is indicated by * p<0.05, compared to control and # p<0.05 compared to rats with cirrhosis.

cirrhotic rats [5] = conditions: 30 mg/kg, 3 times a week for 4 weeks; remark: listed apart in the source
Source text: as §1
Ascites are formed when the synthesis of the blood plasma protein (especially albumin) is reduced in the liver tissues, bringing a disturbance in maintaining the equilibrium of the osmotic pressure in the blood. […] The significance is indicated by ** p<0.01, compared to control and # p<0.05 compared to rats with cirrhosis.

rats with liver fibrosis [6] = conditions: 30 mg/kg 3 times a week
Source text: as §1
(§2) By continually administering rats with dimethylnitrosamine (DMN) 3 times a week for 4 weeks, test models of cirrhotic livers were achieved. At such time, the rats showing only indications of liver fibrosis were placed in a separate group from rats showing indications of cirrhosis, and the survival rates of rats with cirrhosis and rats with liver fibrosis were studied during the next 4 weeks.

rats with cirrhosis [7] = conditions: cirrhotic rats, 30 mg/kg, 3 times a week for 4 weeks; without oltipraz 48% after 4 weeks
Source text: as §1, §2

C/EBP-β = conditions: rat hepatocytes, 30 μM for 6 hours
Description: Afterwards, to study whether oltipraz promotes translocation of C/EBP-β to the nucleus, rat hepatocytes were incubated with oltipraz at the concentration of 30 μM for 6 hours.

C/EBP-β and C/EBP-α [8] = conditions: primary cultured hepatocytes, 30 μM
cirrhotic rats [9] = conditions: 3 times a week for 4 weeks, untreated approximately 56% of normal
Source text: as §1
Cirrhosis is not only responsible for diminishing of a liver's function, but also for atrophy of the liver tissues. […] Since weight loss accompanies cirrhosis, in order to standardize the test results, the weight of the brain, which is normally not affected by cirrhosis, was used as the comparative weight to obtain the changes in the weights. The significance is indicated by ** p<0.01, compared to control and # p<0.05 compared to rats with cirrhosis.

C/EBP = conditions: hepatocytes isolated from cirrhotic rats incubated with oltipraz
Thy1.1 and Flt-3 = conditions: cirrhotic rats, 30 mg/kg, 3 times a week for 4 weeks; compared to untreated cirrhotic rats
Source text: The cells, which regenerate to liver tissues, are known to originate from stem cells.

c-Met = conditions: cirrhotic rats, 30 mg/kg, 3 times a week for 4 weeks; versus un-administered rats
Source text: c-Met is a Hepatocyte Growth Factor (HGF) receptor, applicable in proliferation and differentiation of the liver cells. […] When c-Met is not appropriately present, even with the presence of HGF, liver tissues will not form.

rats with cirrhosis [10] = conditions: 3 times a week for 4 weeks; for Fibrosis Scores / Knodell Scores: group with cirrhosis; for Fibrosis Scores: scale 0-4, untreated 3.8 ± 0.2; for Knodell Scores: untreated 14.0 ± 0.8
Source text: as §1, §2
The histopathological effect of oltipraz on cirrhosis was studied.
(§3) The curative effect of oltipraz on liver cirrhosis was histopathologically determined through fibrosis scores taken after Masson's trichrome staining and through Knodell scores which show the portal inflammation and the extent of fibrosis of the liver (FIG. 2, Table 1).
(§4) Each value is represented by the average ± standard deviation. The number of animals used was 5 to 10. The significance of each group is determined by the paired Student's t-test. The significance is indicated by * p<0.05, ** p<0.01 compared to rats with cirrhosis or liver fibrosis. […] Degree of fibrosis 0=Normal, 1=Presence of weak fibrous tissue, 2=Presence of moderate fibrous tissue, 3=Presence of obvious fibrous tissue, 4=Evidence of severe fibrosis. Sum of values from periportal bridging (Greatest=10), intralobular cell loss (Greatest=4), portal inflammation (Greatest=4), and fibrosis (Greatest=4) yields the Knodell score.

cirrhotic rats [11] = conditions: index 0-3, untreated 1.7
Source text: as §1
Another representative clinical symptom of cirrhosis is the accumulation of ascites. […] The significance is indicated by ** p<0.01, compared to control and # p<0.05 compared to rats with cirrhosis.

PCNA [12] = conditions: cirrhotic rats, 30 mg/kg, 3 times a week for 4 weeks; compared to cirrhotic rat without oltipraz
Description: PCNA immunochemical analysis is done with a specific antibody for PCNA (Santa Cruz Biotech). Analysis was carried out by indirect Avidin-Biotin-Alkaline-Phosphatase technique, according to the protocol provided by the manufacturer (InnoGenex). […] By using blocking serum, nonspecific antibody bindings were prevented. Then, in a humidified chamber, the slices were incubated with antibodies for 30 minutes at room temperature. After the incubation, Phosphate Buffered Saline (PBS) with 0.1% Tween-20 was used to rinse the slides. The slices were subjected to biotinylated 2nd antibodies and reacted for 5 minutes at 37° C. followed by additional reaction for 5 minutes at 37° C. with streptavidin-conjugated alkaline phosphatase added. Then, 5-bromo-4-chloro-3-indolyl-phosphate (BCIP) and nitro-blue-tetrazolium (NBT) were used as the phosphatase substrate to be incubated with the slices on the slide until proper colors became visible. Afterwards, the slices were again stained with nuclear fast red.

rats with liver fibrosis [13] = conditions: group with fibrosis; for Fibrosis Scores: scale 0-4, untreated 2.2 ± 0.5; for Knodell Scores: untreated 6.0 ± 1.2
Source text: as §1, §2, §3, §4

[14] = 15 mg/kg, 3 times a week for 4 weeks, 15 mg/kg
[15] = 15 mg/kg, 3 times a week for 4 weeks, listed as oltipraz, 15 mg/kg

SMILES: Cc1c(-c2cnccn2)ssc1=S [Oltipraz, 5-(2-pyrazinyl)-4-methyl-1,2-dithiol-3-thione]
- division of the liver cells (cirrhotic rats [1]): clearly shows the dividing cells
- appearance of liver-enriched inhibitory protein (LIP) (C/EBP-β and C/EBP-α [2]): almost completely disappeared
- expression of C/EBP-α (C/EBP-β and C/EBP-α [2]): noticeably recovered
- expression of C/EBP-β (C/EBP-β and C/EBP-α [2]): increased
- expression of PCNA (36 kDa band intensity) (PCNA [3]): significant increase in the expression of PCNA
- total cholesterol level in blood plasma (rats with cirrhosis [4]; cirrhotic rats treated with oltipraz (dose not given)): did not show noticeable change
- AST value lowered (rats with cirrhosis [4]; cirrhotic rats, 30 mg/kg): approximately 70%
- amount of bilirubin in blood plasma (rats with cirrhosis [4]; cirrhotic rats, oltipraz administration (dose not given)): tended to be reduced
- ALT in blood plasma (rats with cirrhosis [4]; [14]): 124 ± 47
- ALT in blood plasma (rats with cirrhosis [4]; [15]): reduced
- AST in blood plasma (rats with cirrhosis [4]; [14]): 206 ± 24
- AST in blood plasma (rats with cirrhosis [4]; [15]): reduced
- Bilirubin in blood plasma (rats with cirrhosis [4]; 15 mg/kg): 1.8 ± 0.4
- Cholesterol in blood plasma (rats with cirrhosis [4]; 15 mg/kg): 116 ± 9
- Bilirubin in blood plasma (rats with cirrhosis [4]; 30 mg/kg): 1.4 ± 0.2
- ALT in blood plasma (rats with cirrhosis [4]; 30 mg/kg): 110 ± 39
- Cholesterol in blood plasma (rats with cirrhosis [4]; 30 mg/kg): 104 ± 7
- AST in blood plasma (rats with cirrhosis [4]; 30 mg/kg): 185 ± 22^#
- amount of albumin in the blood plasma (cirrhotic rats [5]): normal albumin content was recovered
- death of rats (rats with liver fibrosis [6]): no death
- survival rate (rats with cirrhosis [7]): 83%
- translocation of C/EBP-β to the nucleus (C/EBP-β): clearly promoted translocation
- amount of C/EBP-α in the nucleus of the liver cells (C/EBP-β and C/EBP-α [8]): gradually increased
- amount of C/EBP-β in the nucleus of the liver cells (C/EBP-β and C/EBP-α [8]): gradually increased
- liver weights (cirrhotic rats [9]; 15 mg/kg): recovered almost to the normal weights
- liver weights (cirrhotic rats [9]; 30 mg/kg): recovered almost to the normal weights
- amount of C/EBP in the nucleus (C/EBP): no significant change was observed
- number of cells containing Thy1.1 and Flt-3 (Thy1.1 and Flt-3): considerable decline
- expression of c-Met (c-Met): noticeably greater
- accumulation of fibers in liver tissue (rats with cirrhosis [10]; cirrhotic rats, 15 or 30 mg/kg): reduced in a dose-dependent manner
- Fibrosis Scores (rats with cirrhosis [10]; 15 mg/kg): 2.9 ± 0.4
- Knodell Scores (rats with cirrhosis [10]; 15 mg/kg): 8.7 ± 1.1**
- Fibrosis Scores (rats with cirrhosis [10]; 30 mg/kg): 2.8 ± 1.1*
- Knodell Scores (rats with cirrhosis [10]; 30 mg/kg): 6.8 ± 2.5**
- ascites formation index (cirrhotic rats [11]; 15 mg/kg): 0.9
- ascites formation index (cirrhotic rats [11]; 30 mg/kg): 0.4
- occurrence of PCNA (cells with PCNA) (PCNA [12]): approximately twice more frequent
- Fibrosis Scores (rats with liver fibrosis [13]; 15 mg/kg): 2.8 ± 0.4
- Knodell Scores (rats with liver fibrosis [13]; 15 mg/kg): 7.0 ± 1.2
- Fibrosis Scores (rats with liver fibrosis [13]; 30 mg/kg): 1.0 ± 0.0**
- Knodell Scores (rats with liver fibrosis [13]; 30 mg/kg): 2.6 ± 0.4*
